In brackets after ≈: the same amount, converted by molar mass.
Assays:
KB cells = details: cited from earlier work; for ED50: KB cells, background, numbering of Examples 1-13
human tumor cell lines [1] = experiment: NCI in vitro screen, mean over all cell lines tested; details: Homo sapiens, read-out: Cytotoxicity log GI50, Mean Value (converted)
Excerpt: (§1) (Activity is defined as log GI50<−4 where GI50 is the molar concentration causing 50% cell growth inhibition).

UACC-62 = experiment: NCI in vitro disease-oriented tumor cells screen; assay type: cell-based, human; details: Homo sapiens; Melanoma UACC-62; Table 2; average of at least two testings; read-out: Cytotoxicity log GI50 (converted)
Excerpt: as §1

MDA-MB-435 = experiment: NCI in vitro disease-oriented tumor cells screen; assay type: cell-based, human; details: Homo sapiens; Breast Cancer MDA-MB-435; Table 2 (numbering of Examples 1-13); average of at least two testings; read-out: Cytotoxicity log GI50 (converted)
Excerpt: as §1

NCI-H23 = experiment: NCI in vitro disease-oriented tumor cells screen; assay type: cell-based, human; details: Homo sapiens; Non-Small Cell Lung Cancer NCI-H23; Table 2 (numbering of Examples 1-13); average of at least two testings; read-out: Cytotoxicity log GI50 (converted)
Excerpt: as §1

HL-60(TB) = experiment: NCI in vitro disease-oriented tumor cells screen; assay type: cell-based, human; details: Homo sapiens; Leukemia HL-60(TB); Table 2; average of at least two testings; read-out: Cytotoxicity log GI50 (converted)
Excerpt: as §1

human tumor cell lines [2] = system: human tumor cell lines
Excerpt: as §1

LOX IMVI = experiment: NCI in vitro disease-oriented tumor cells screen; assay type: cell-based, human; details: Homo sapiens; Melanoma LOX IMVI; Table 2 (numbering of Examples 1-13); average of at least two testings; read-out: Cytotoxicity log GI50 (converted)
Excerpt: as §1

SK-MEL-2 = experiment: NCI in vitro disease-oriented tumor cells screen; assay type: cell-based, human; details: Homo sapiens; Melanoma SK-MEL-2; Table 2; average of at least two testings; read-out: Cytotoxicity log GI50 (converted)
Excerpt: as §1

M14 = experiment: NCI in vitro disease-oriented tumor cells screen; assay type: cell-based, human; details: Homo sapiens; Melanoma M14; Table 2; average of at least two testings; read-out: Cytotoxicity log GI50 (converted)
Excerpt: as §1

BT-549 = experiment: NCI in vitro disease-oriented tumor cells screen; assay type: cell-based, human; details: Homo sapiens; Breast Cancer BT-549; Table 2; average of at least two testings; read-out: Cytotoxicity log GI50 (converted)
Excerpt: as §1

MALME-3M = experiment: NCI in vitro disease-oriented tumor cells screen; assay type: cell-based, human; details: Homo sapiens; Melanoma MALME-3M; Table 2; average of at least two testings; read-out: Cytotoxicity log GI50 (converted)
Excerpt: as §1

NCI-H522 = experiment: NCI in vitro disease-oriented tumor cells screen; assay type: cell-based, human; details: Homo sapiens; Non-Small Cell Lung Cancer NCI-H522; Table 2; average of at least two testings; read-out: Cytotoxicity log GI50 (converted)
Excerpt: as §1

SK-MEL-5 = experiment: NCI in vitro disease-oriented tumor cells screen; assay type: cell-based, human; details: Homo sapiens; Melanoma SK-MEL-5; Table 2 (numbering of Examples 1-13); average of at least two testings; read-out: Cytotoxicity log GI50 (converted)
Excerpt: as §1

MDA-N = experiment: NCI in vitro disease-oriented tumor cells screen; assay type: cell-based, human; details: Homo sapiens; Breast Cancer MDA-N; Table 2 (numbering of Examples 1-13); average of at least two testings; read-out: Cytotoxicity log GI50 (converted)
Excerpt: as §1

OVCAR-8 = experiment: NCI in vitro disease-oriented tumor cells screen; assay type: cell-based, human; details: Homo sapiens; Ovarian Cancer OVCAR-8; Table 2; average of at least two testings; read-out: Cytotoxicity log GI50 (converted)
Excerpt: as §1

HS 578T = experiment: NCI in vitro disease-oriented tumor cells screen; assay type: cell-based, human; details: Homo sapiens; Breast Cancer HS 578T; Table 2; average of at least two testings; read-out: Cytotoxicity log GI50 (converted)
Excerpt: as §1

UACC-257 = experiment: NCI in vitro disease-oriented tumor cells screen; assay type: cell-based, human; details: Homo sapiens; Melanoma UACC-257; Table 2; average of at least two testings; read-out: Cytotoxicity log GI50 (converted)
Excerpt: as §1

SK-MEL-28 = experiment: NCI in vitro disease-oriented tumor cells screen; assay type: cell-based, human; details: Homo sapiens; Melanoma SK-MEL-28; Table 2; average of at least two testings; read-out: Cytotoxicity log GI50 (converted)
Excerpt: as §1

OVCAR-3 = experiment: NCI in vitro disease-oriented tumor cells screen; assay type: cell-based, human; details: Homo sapiens; Ovarian Cancer OVCAR-3; Table 2 (numbering of Examples 1-13); average of at least two testings; read-out: Cytotoxicity log GI50 (converted)
Excerpt: as §1

SMILES	ED50 (KB cells) [µg/mL]	GI50 (human tumor cell lines [1]) [nM]	GI50 (UACC-62) [nM]	GI50 (MDA-MB-435) [nM]	GI50 (NCI-H23) [nM]	GI50 (HL-60(TB)) [nM]	GI50 (LOX IMVI) [nM]	GI50 (SK-MEL-2) [nM]	GI50 (M14) [nM]	GI50 (BT-549) [nM]	GI50 (MALME-3M) [nM]	GI50 (NCI-H522) [nM]	GI50 (SK-MEL-5) [nM]	GI50 (MDA-N) [nM]	GI50 (OVCAR-8) [nM]	GI50 (HS 578T) [nM]	GI50 (UACC-257) [nM]	GI50 (SK-MEL-28) [nM]	GI50 (OVCAR-3) [nM]	also measured
O=C1c2c(O)ccc(O)c2C(=O)c2c(NCCNCCO)ccc(NCCNCCO)c21 [Compound 1, mitoxantrone]	1.0 (≈ 2.25 µM)	–	–	–	–	–	–	–	–	–	–	–	–	–	–	–	–	–	–	–
CC(=O)c1cc2c(o1)C(=O)c1ccccc1C2=O [Compound 2, 2-acetyl-4H, 9H-naphtho[2,3-b]furan-4,9-dione]	2.0 (≈ 8.33 µM)	–	–	–	–	–	–	–	–	–	–	–	–	–	–	–	–	–	–	EC50 (KB cells; KB cell culture assay, numbering of Examples 14-16, read-out: ED50 (the source's name)): 4200 nM
O=C1c2ccccc2C(=O)c2sccc21 [Compound 4, naphtho[2,3-b]thiophene-4,9-dione]	1.4 (≈ 6.53 µM)	–	–	–	–	–	–	–	–	–	–	–	–	–	–	–	–	–	–	–
CC(=O)OC(C)c1cc2c(s1)C(=O)c1ccsc1C2=O (stereo not drawn) [Compound 11, 2-(1′-Acetoxyethyl)-4,8-dihydrobenzo[1,2-b:4,5-b′]dithiophene-4,8-dione]	–	39.8	17	< 10	11.2	< 10	< 10	26.3	12.9	45.7	< 10	148	13.5	< 10	36.3	155	25.1	19.1	< 10	Cytotoxicity log GI50, Mean Value (human tumor cell lines [2]; human): −7.40 M
CC(=O)c1cc2c(s1)C(=O)c1c(C(C)=O)csc1C2=O [Compound 13, 2,7-Diacetyl-4,8-dihydrobenzo[1,2-b:4,5-b′]dithiophene-4,8-dione]	–	1170	1950	178	1320	52.5	1050	1740	1510	1740	1320	525	1200	174	1450	2400	562	1780	229	overall cytotoxicity / potency (in words) (human tumor cell lines [2]): less active in all cell lines
